From patent US20230303613A1, “3′3′ CYCLIC DINUCLEOTIDES WITH AN ALKENYLENE” (Institute of Organic Chemistry and Biochemistry AS CR, v.v.i, priority 2020, published 2023)
Read-outs that look alike come from different tables or passages of the source.

Tests used:
[1] = biological target: WT STING (Homo sapiens, UniProt Q86WV6, H232R); assay: 293T WT STING standard reporter assay; type: cell-based; details: 293T wtSTING-FL cells; 7 hours with compound, no digitonin; ISRE firefly luciferase reporter
Description: Two complementary oligonucleotides of the sequence […] […] […] […] […] The oligonucleotides were mixed in equal molar amounts, hybridized, and cleaved by restriction endonucleases HindIII (cat. #. R0104S, NEB, Ipswich, USA) and BglII (cat. # R0144S, NEB, Ipswich, USA). Ultimately, they were ligated into plasmid pGL4.27 (cat. # E6651, Promega, Madison, USA) linearized with the same enzymes. As result the sequence with four ISRE sites was placed upstream of the minimum promoter of firefly luciferase reporter gene.
After 5 minutes incubation at room temperature (RT), 250 µL of the mixture was added dropwise to the cells in one well. Cells were incubated 36 hours at 37° C. with 5% CO2, and then detached with 0.05% Trypsin and 0.22 g/L EDTA (both cat. # L0941, Biowest, Riverside, USA).
Transfected cells were seeded onto poly-D-lysine coated six well plates at density 50,000 cells per 1 cm^2 in DMEM medium with high glucose containing 10% heat inactivated FBS, 30 µg/mL blasticidin (cat. # ant-bl-05, InvivoGen, San Diego, USA), 0.06 mg/ml Penicillin G and 0.1 mg/ml Streptomycin Sulfate (both cat. #. L0018, Biowest, Riverside, USA). The medium was replenished every 3 - 4 days until visible colonies of cells resistant to blasticidin were formed.
Blasticidin resistant cells stably expressing WT STING were further transfected with […] plasmid following the same procedure as described above. […] Homogeneous culture of stably double transfected cells was prepared by limiting dilution of cells in 96 well plates and wells with cells were selected that originated from a single cell.
The medium was removed next day and three-fold serial dilutions of compounds in 100 µl medium were added to the cells. The plates with cells were incubated for 7 hours at 37° C. with 5% CO2. After 50 µl of the medium was removed, 30 µl of ONE-Glo^Tm Luciferase Assay System reagent (cat. # E6120, Promega, Madison, USA) was added to each well and luminescence was read on Synergy H1 (Biotek, Winooski, USA).

[2] = test system: peripheral blood mononuclear cell (PBMC); assay: Peripheral blood mononuclear cell assay; type: cell-based; details: 1h with compound, washed, 15 hour incubation
Description: Selected compounds were tested in an in vitro peripheral blood mononuclear cell (PBMC) assay. Freshly isolated PBMCs were seeded into U-shaped shaped 96-well plates at desity 500,000 cells per well in 50 µl of RPMI 1640 medium supplemented with 10% heat inactivated FBS. Serially dilluted tested compounds were added to wells in 50 µl of cultivation medium and cell were incubated with compounds for 1h at 37° C. with 5% CO2. Plates with cells were then spun 500 g for 5 minutes and medium was removed. Cells were washed twice with the cell culture medium by the use of centrifugation and gently resuspended in 100 µl medium without compounds. After 15 hour incubation at 37° C. with 5% CO2, the cell culture medium was collected and the levels of interferon-alpha (INF-α), interferon-gamma (INF-γ) and tumor necrosis factor-alpha (TNF-α) were determined with ProcartaPlex Assays (ThermoFisher, Waltham, USA) and MAGPIX System (Merck KGaA, Darmstadt, Germany).

[3] = IFN-α level in medium, read-out: PBMC EC50 IFN-α
[4] = TNF-α level in medium, read-out: PBMC EC50 TNF-α
[5] = PBMC, IFN-α level in medium, read-out: PBMC EC50 IFN-α
[6] = PBMC, IFN-γ level in medium, read-out: PBMC EC50 IFN-γ
[7] = PBMC, TNF-α level in medium, read-out: PBMC EC50 TNF-α

Chain of WT STING (Q86WV6 whole entry H232R): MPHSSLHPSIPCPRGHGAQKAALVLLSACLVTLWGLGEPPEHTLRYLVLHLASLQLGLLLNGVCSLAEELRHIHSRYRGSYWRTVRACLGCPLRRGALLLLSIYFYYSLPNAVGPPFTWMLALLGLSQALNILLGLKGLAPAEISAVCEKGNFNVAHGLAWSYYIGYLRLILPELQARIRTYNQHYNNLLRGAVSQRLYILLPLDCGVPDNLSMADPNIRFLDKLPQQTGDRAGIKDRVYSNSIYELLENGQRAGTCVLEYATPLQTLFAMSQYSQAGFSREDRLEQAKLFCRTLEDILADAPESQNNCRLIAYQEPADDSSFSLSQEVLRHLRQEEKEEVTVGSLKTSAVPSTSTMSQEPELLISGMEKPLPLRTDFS

| EC50 [1] [µM] | Compound | also measured |
| --- | --- | --- |
| 0.122 | {[(1R,6R,8R,9R,10R,13E,15R,17R,18R)-8,17-bis(6-amino-9H-purin-9-yl)-9,18-difluoro-3,12-dioxo-3-({[(propan-2-yloxy)carbonyl]oxy}methoxy)-2,4,7,11,16-pentaoxa-3λ^5,12λ^5- diphosphatricyclo[13.3.0.0^6,^10]octadec-13-en-12-yl]oxy}methyl propan-2-yl carbonate [Compound 81c] | EC50 [2, 3]: 0.6 µM; EC50 ([2]; IFN-γ level in medium, read-out: PBMC EC50 IFN-γ): 1.3 µM; EC50 [2, 4]: 0.25 µM |
| 0.022 | CC(C)(C)C(=O)OCOP1(=O)/C=C/[C@H]2O[C@@H](n3cnc4c(N)ncnc43)[C@H](F)[C@@H]2OP(=O)(OCOC(=O)C(C)(C)C)OC[C@H]2O[C@@H](n3cnc4c(N)ncnc43)[C@H](F)[C@@H]2O1 (single isomer, unassigned) [Compound 80b] | – |
| 0.007 | CCC(C)(C)C(=O)OCOP1(=O)/C=C/[C@H]2O[C@@H](n3cnc4c(N)ncnc43)[C@H](F)[C@@H]2OP(=O)(OCOC(=O)C(C)(C)CC)OC[C@H]2O[C@@H](n3cnc4c(N)ncnc43)[C@H](F)[C@@H]2O1 (single isomer, unassigned) [Compound 84c] | EC50 [2, 3]: 0.03 µM; EC50 [2, 4]: 0.01 µM |
| 0.15 | CCC(C)(C)C(=O)OCOP1(=O)/C=C/[C@H]2O[C@@H](n3cnc4c(N)ncnc43)[C@H](F)[C@@H]2OP(=O)(OCOC(=O)C(C)(C)CC)OC[C@H]2O[C@@H](n3cnc4c(N)ncnc43)[C@H](F)[C@@H]2O1 (single isomer, unassigned) [Compound 84a] | – |
| 0.003 | CCCCCCCCCCCC(=O)OCOP1(=O)/C=C/[C@H]2O[C@@H](n3cnc4c(N)ncnc43)[C@H](F)[C@@H]2OP(=O)(OCOC(=O)CCCCCCCCCCC)OC[C@H]2O[C@@H](n3cnc4c(N)ncnc43)[C@H](F)[C@@H]2O1 (single isomer, unassigned) [Compound 85b] | – |
| 1.2 | {[(1R,6R,8R,9R,10R,13E,15R,17R,18R)-8,17-bis(6-amino-9H-purin-9-yl)-9,18-difluoro-3,12-dioxo-3-({[(propan-2-yloxy)carbonyl]oxy}methoxy)-2,4,7,11,16-pentaoxa-3λ^5,12λ^5- diphosphatricyclo[13.3.0.0^6,^10]octadec-13-en-12-yl]oxy}methyl propan-2-yl carbonate [Compound 81b] | – |
| 0.084 | CC(C)(C)C(=O)OCOP1(=O)/C=C/[C@H]2O[C@@H](n3cnc4c(N)ncnc43)[C@H](F)[C@@H]2OP(=O)(OCOC(=O)C(C)(C)C)OC[C@H]2O[C@@H](n3cnc4c(N)ncnc43)[C@H](F)[C@@H]2O1 (single isomer, unassigned) [Compound 80a] | – |
| 0.67 | CC(C)(C)C(=O)OCOP1(=O)/C=C/[C@H]2O[C@@H](n3cnc4c(N)ncnc43)C[C@@H]2OP(=O)(OCOC(=O)C(C)(C)C)OC[C@H]2O[C@@H](n3cnc4c(N)ncnc43)[C@H](F)[C@@H]2O1 (single isomer, unassigned) [Compound 87b] | – |
| 0.01 | CC(C)(C)C(=O)OCOP1(=O)/C=C/[C@H]2O[C@@H](n3cnc4c(N)ncnc43)[C@H](F)[C@@H]2OP(=O)(OCOC(=O)C(C)(C)C)OC[C@H]2O[C@@H](n3cnc4c(N)ncnc43)C[C@@H]2O1 (stereo partly drawn) [Compound 86, {[(1R,6R,8R,10S,13E,15R,17R,18R)-8,17-bis(6-amino-9H-purin-9-yl)-3-{[(2,2-dimethylpropanoyl)oxy]methoxy}-18-fluoro-3,12-dioxo-2,4,7,11,16-pentaoxa-3λ^5,12λ^5-diphosphatricyclo[13.3.0.0^6,^10]octadec-13-en-12-yl]oxy}methyl 2,2-dimethylpropanoate] | EC50 [2, 5]: 0.6 µM; EC50 [2, 6]: 1.6 µM; EC50 [2, 7]: 0.8 µM |
| 0.023 | CCCCCCCC(=O)OCOP1(=O)/C=C/[C@H]2O[C@@H](n3cnc4c(N)ncnc43)[C@H](F)[C@@H]2OP(=O)(OCOC(=O)CCCCCCC)OC[C@H]2O[C@@H](n3cnc4c(N)ncnc43)[C@H](F)[C@@H]2O1 (single isomer, unassigned) [Compound 83a] | – |
| 9.5 | CC(C)OC(=O)OCOP1(=O)/C=C/[C@H]2O[C@@H](n3cnc4c(N)ncnc43)[C@H](F)[C@@H]2OP(=O)(OCOC(=O)OC(C)C)OC[C@H]2O[C@@H](n3cnc4c(N)ncnc43)[C@H](F)[C@@H]2O1 (stereo partly drawn) [Compound 81a, {[(1R,6R,8R,9R,10R,13E,15R,17R,18R)-8,17-bis(6-amino-9H-purin-9-yl)-9,18-difluoro-3,12-dioxo-3-({[(propan-2-yloxy)carbonyl]oxy}methoxy)-2,4,7,11,16-pentaoxa-3λ^5,12λ^5-diphosphatricyclo[13.3.0.0^6,^10]octadec-13-en-12-yl]oxy}methyl propan-2-yl carbonate] | – |
| 0.26 | CC(C)(C)C(=O)OCOP1(=O)/C=C/[C@H]2O[C@@H](n3cnc4c(N)ncnc43)C[C@@H]2OP(=O)(OCOC(=O)C(C)(C)C)OC[C@H]2O[C@@H](n3cnc4c(N)ncnc43)[C@H](F)[C@@H]2O1 (single isomer, unassigned) [Compound 87c] | – |
| 0.012 | CC(C)(C)C(=O)OCOP1(=O)/C=C/[C@H]2O[C@@H](n3cnc4c(N)ncnc43)[C@H](F)[C@@H]2OP(=O)(OCOC(=O)C(C)(C)C)OC[C@H]2O[C@@H](n3cnc4c(N)ncnc43)[C@H](F)[C@@H]2O1 (single isomer, unassigned) [Compound 80c] | EC50 [2, 5]: 0.1 µM; EC50 [2, 6]: 0.18 µM; EC50 [2, 7]: 0.1 µM |
| 0.003 | CCCCCCCC(=O)OCOP1(=O)/C=C/[C@H]2O[C@@H](n3cnc4c(N)ncnc43)[C@H](F)[C@@H]2OP(=O)(OCOC(=O)CCCCCCC)OC[C@H]2O[C@@H](n3cnc4c(N)ncnc43)[C@H](F)[C@@H]2O1 (single isomer, unassigned) [Compound 83c] | – |
| 0.003 | CCCCCCCC(=O)OCOP1(=O)/C=C/[C@H]2O[C@@H](n3cnc4c(N)ncnc43)[C@H](F)[C@@H]2OP(=O)(OCOC(=O)CCCCCCC)OC[C@H]2O[C@@H](n3cnc4c(N)ncnc43)[C@H](F)[C@@H]2O1 (single isomer, unassigned) [Compound 83b] | – |
| 0.01 | CCC(C)(C)C(=O)OCOP1(=O)/C=C/[C@H]2O[C@@H](n3cnc4c(N)ncnc43)[C@H](F)[C@@H]2OP(=O)(OCOC(=O)C(C)(C)CC)OC[C@H]2O[C@@H](n3cnc4c(N)ncnc43)[C@H](F)[C@@H]2O1 (single isomer, unassigned) [Compound 84b] | EC50 [2, 3]: 0.08 µM; EC50 [2, 4]: 0.07 µM; EC50 [2, 6]: 0.06 µM |
| 0.0004 | CCCCCCCCCCCC(=O)OCOP1(=O)/C=C/[C@H]2O[C@@H](n3cnc4c(N)ncnc43)[C@H](F)[C@@H]2OP(=O)(OCOC(=O)CCCCCCCCCCC)OC[C@H]2O[C@@H](n3cnc4c(N)ncnc43)[C@H](F)[C@@H]2O1 (single isomer, unassigned) [Compound 85a] | EC50 [2, 5]: 0.02 µM; EC50 [2, 6]: 0.01 µM; EC50 [2, 7]: 0.02 µM |
| 0.2 | CC1(C(=O)OCOP2(=O)/C=C/[C@H]3O[C@@H](n4cnc5c(N)ncnc54)[C@H](F)[C@@H]3OP(=O)(OCOC(=O)C3(C)CCCCC3)OC[C@H]3O[C@@H](n4cnc5c(N)ncnc54)[C@H](F)[C@@H]3O2)CCCCC1 (single isomer, unassigned) [Compound 82a] | – |
| 0.08 | CC1(C(=O)OCOP2(=O)/C=C/[C@H]3O[C@@H](n4cnc5c(N)ncnc54)[C@H](F)[C@@H]3OP(=O)(OCOC(=O)C3(C)CCCCC3)OC[C@H]3O[C@@H](n4cnc5c(N)ncnc54)[C@H](F)[C@@H]3O2)CCCCC1 (single isomer, unassigned) [Compound 82b] | – |
| 12.1 | CC(C)(C)C(=O)OCOP1(=O)/C=C/[C@H]2O[C@@H](n3cnc4c(N)ncnc43)C[C@@H]2OP(=O)(OCOC(=O)C(C)(C)C)OC[C@H]2O[C@@H](n3cnc4c(N)ncnc43)[C@H](F)[C@@H]2O1 (single isomer, unassigned) [Compound 87a] | – |
